Assay [1] has as its system Human Colon Adenocarcinoma Cell Line sensitive to doxorubicin (LoVo). Briefly: In vitro cytotoxicity, colony inhibition test on human colon adenocarcinoma cell line sensitive to doxorubicin (LoVo). It counts as cell-based. The conditions noted are these: read-out: ID50 (dose which gives 50% reduction of cell number in comparison with untreated controls), LoVo. As to the method: (§1) Compound II (4-demethoxy-6-deoxy-6-aminodaunorubicin) and Compound III (4-demethoxy-6-deoxy-6-aminodoxorubicin) have been tested "in vitro" against Human Colon Adenocarcinoma Cell Line sensitive to doxorubicin (LoVo) and resistant to doxorubicin (LoVo/DX) in comparison with daunorubicin (DNR) and doxorubicin (DX).
(§2) In Vitro cytotoxicity (a) on human colon adenocarcinoma cell
(§3) line sensitive (LoVo) and resistant to doxorubicin (LoVo/DX)
(§4) (a)Colony inhibition test: 4 hours treatment
(§5) (b)dose which gives 50% reduction of cell number in comparison with
(§6) In Vitro cytotoxicity (a) on human colon adenocarcinoma
(§7) cell line sensitive (LoVo) and resistant to doxorubicin
(§8) (LoVo/DX) of 4-demethoxy-6-deoxy-6-amino DX
(§9) (a)Colony inhibition test: -24 hours treatment

In assay [2] the test system is Human Colon Adenocarcinoma Cell Line resistant to doxorubicin (LoVo/DX). Briefly: In vitro cytotoxicity, colony inhibition test on human colon adenocarcinoma cell line resistant to doxorubicin (LoVo/DX). It counts as cell-based. The note with it: read-out: ID50 (dose which gives 50% reduction of cell number in comparison with untreated controls), LoVo/DX. The method, then:
as §1, §2, §3, §4, §5, §6, §7, §8, §9

Setting [3] is: Table 1, colony inhibition test, 4 hours treatment.
[4] abbreviates: Table 2, colony inhibition test, 24 hours treatment.

Molecules are shown by their SMILES. Values after ≈ are worked out from the molar mass of the structure shown. Where two headings read alike, the source gives them in different places.

On to `CC(=O)[C@]1(O)Cc2c(O)c3c(c(N)c2[C@@H](O[C@H]2C[C@H](N)[C@H](O)[C@H](C)O2)C1)C(=O)c1ccccc1C3=O` [Compound II, 4-demethoxy-6-deoxy-6-amino daunorubicin], for which the IC50 in assay [1] (setting [3]) was 0.09 µg/mL (≈ 0.181 µM); in assay [2] (setting [3]) it was 4.4 µg/mL (≈ 8.86 µM).

Regarding `C[C@@H]1O[C@@H](O[C@H]2C[C@](O)(C(=O)CO)Cc3c(O)c4c(c(N)c32)C(=O)c2ccccc2C4=O)C[C@H](N)[C@@H]1O` [Compound III, 4-demethoxy-6-deoxy-6-amino doxorubicin], the IC50 in assay [1] (setting [4]) amounted to 0.099 µg/mL (≈ 0.193 µM); in assay [2] (setting [4]), 1.15 µg/mL (≈ 2.24 µM).

As for `COc1cccc2c1C(=O)c1c(O)c3c(c(O)c1C2=O)C[C@@](O)(C(C)=O)C[C@@H]3O[C@H]1C[C@H](N)[C@H](O)[C@H](C)O1` [DNR, daunorubicin], the IC50 in assay [1] (4 h) was 0.042 µg/mL (≈ 0.0796 µM); in assay [2] (4 h), 2.36 µg/mL (≈ 4.47 µM).

For `COc1cccc2c1C(=O)c1c(O)c3c(c(O)c1C2=O)C[C@@](O)(C(=O)CO)C[C@@H]3O[C@H]1C[C@H](N)[C@H](O)[C@H](C)O1` [DX, doxorubicin], the IC50 came out at 0.0266 µg/mL (≈ 0.0489 µM) in assay [1] (24 h) and 0.833 µg/mL (≈ 1.53 µM) in assay [2] (24 h).

For the origin of these results see patent US4891360A, “6-amino anthracyclines, process for their preparation and use thereof” (Farmitalia Carlo Erba S.r.l., priority 1986, dated 1990).
